The results in this text go back to patent US20260242388A1, “NBD1 MODULATORS AND METHODS OF USING THE SAME” (Sionna Therapeutics Inc., priority 2023, published 2026).

The subject of one assay is NBD1. Briefly: Aggregation analysis using differential static light scattering (DSLS), thermal stability of NBD1. The class given is binding, Human. To be noted: 100 μM compound; ΔTagg = Tagg minus average Tagg of DMSO control wells; NBD1 0.2 mg/ml. On the procedure: Example 23. Aggregation Analysis Using Differential Static Light Scattering (DSLS)
Purified recombinant NBD1 was produced using previously described methods (A. Schmidt, J. L. Mendoza, P. J. Thomas (2011) Biochemical and Biophysical Approaches to Probe CFTR Structure (365-376) M. D. Amaral, K. Kunzelmann (eds.), Cystic Fibrosis, Methods in Molecular Biology 741, Springer Science+Business Media). The effect of test compounds on thermal stability of NBD1 was evaluated by differential static light scattering (DSLS) using the Harbinger Stargazer-384 instrument (Epiphyte Three, Toronto, Canada). Test compounds were dissolved and diluted to desired concentrations in 100% DMSO. The compounds or DMSO controls (100 nL) were stamped into wells of a […] low volume optical plate (Corning Inc., Corning, NY) using the Echo 555 acoustic liquid handler (Labcyte Inc., San Jose, CA).
NBD1 protein was diluted to 0.2 mg/ml in S200 buffer (50 mM Tris-HCl, 150 mM NaCl, 5 mM MgCl2, 2 mM ATP, 2 mM DTT, pH7.6) containing 1% glycerol. 10 μL of protein solution was aliquoted into the 384-well plate harboring the test compounds and 10 μL mineral oil was overlayed onto the protein solution, using the epMotion robotic liquid handler (Eppendorf North America, Hauppauge, NY). After placing into the Stargazer instrument, the plate was heated at 1° C. per minute to 70° C. Images were captured from 25° C. to 70° C. every 0.5° C. At the end of the experiment run, instrument software integrated image files and analyzed data automatically. A linear regression curve was generated for each well, representing the increase in light scattering over time. A temperature of aggregation (Tagg) was calculated based on the inflection point of the curve. To better compare data across experiments the average Tagg for DMSO control wells was calculated and subtracted from values for wells containing compounds to obtain a “ΔTagg” value. These ΔTagg values reflect stabilizing efficacy of the compounds.

The target in another assay is T1, CFTR (Homo sapiens, UniProt P13569, DEL508-508).
T1 construct: Primary human bronchial epithelial cells from a ΔF508 homozygous CF donor; host or cells: primary CF-HBE cells, ΔF508 homozygous donor
T1 sequence (P13569 with tags, fused parts or gaps DEL508-508): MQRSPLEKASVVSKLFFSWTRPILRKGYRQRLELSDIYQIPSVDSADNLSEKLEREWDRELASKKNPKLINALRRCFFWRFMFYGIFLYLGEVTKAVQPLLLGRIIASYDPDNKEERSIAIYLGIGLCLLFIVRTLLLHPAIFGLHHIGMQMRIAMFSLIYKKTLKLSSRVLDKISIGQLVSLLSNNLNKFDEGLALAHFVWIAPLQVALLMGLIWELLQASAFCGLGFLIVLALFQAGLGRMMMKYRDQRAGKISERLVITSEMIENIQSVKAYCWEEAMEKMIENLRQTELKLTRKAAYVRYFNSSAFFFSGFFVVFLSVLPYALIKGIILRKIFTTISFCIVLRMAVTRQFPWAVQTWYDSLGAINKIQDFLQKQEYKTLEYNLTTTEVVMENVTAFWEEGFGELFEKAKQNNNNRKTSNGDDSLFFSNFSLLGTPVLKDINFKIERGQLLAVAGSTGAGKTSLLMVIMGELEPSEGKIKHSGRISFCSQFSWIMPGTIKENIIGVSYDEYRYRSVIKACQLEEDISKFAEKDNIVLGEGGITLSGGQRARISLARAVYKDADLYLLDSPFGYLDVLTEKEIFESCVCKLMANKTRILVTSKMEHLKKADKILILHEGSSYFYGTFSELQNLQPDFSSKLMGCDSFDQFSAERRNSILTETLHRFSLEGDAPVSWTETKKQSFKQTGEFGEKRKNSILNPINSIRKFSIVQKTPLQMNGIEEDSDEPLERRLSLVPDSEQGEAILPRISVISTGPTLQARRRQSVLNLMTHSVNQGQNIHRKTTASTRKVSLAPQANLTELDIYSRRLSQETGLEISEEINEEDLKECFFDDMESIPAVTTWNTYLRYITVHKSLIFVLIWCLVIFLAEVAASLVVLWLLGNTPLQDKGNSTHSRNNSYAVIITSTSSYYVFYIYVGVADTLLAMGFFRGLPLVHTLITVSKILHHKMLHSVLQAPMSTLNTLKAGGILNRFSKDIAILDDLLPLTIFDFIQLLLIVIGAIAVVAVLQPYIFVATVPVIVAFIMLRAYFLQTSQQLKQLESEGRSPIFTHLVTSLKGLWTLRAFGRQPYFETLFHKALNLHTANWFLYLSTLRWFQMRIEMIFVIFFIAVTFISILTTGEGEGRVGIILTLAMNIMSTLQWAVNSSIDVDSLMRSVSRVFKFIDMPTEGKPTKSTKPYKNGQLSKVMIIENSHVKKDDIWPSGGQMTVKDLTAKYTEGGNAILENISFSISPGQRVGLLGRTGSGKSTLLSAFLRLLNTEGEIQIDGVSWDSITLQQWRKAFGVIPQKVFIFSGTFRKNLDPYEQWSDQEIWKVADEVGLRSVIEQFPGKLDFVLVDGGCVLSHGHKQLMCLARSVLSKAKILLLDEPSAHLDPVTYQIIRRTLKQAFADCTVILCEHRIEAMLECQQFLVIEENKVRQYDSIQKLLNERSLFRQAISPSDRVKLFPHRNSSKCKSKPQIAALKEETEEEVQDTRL
Briefly: TECC24 recording of CFTR-mediated transepithelial chloride transport in ΔF508 homozygous CF-HBE cells. The class given is cell-based. The conditions noted are these: 48 hours incubation, AUC of forskolin-stimulated IEQ, test agent AUC divided by vehicle (DMSO) AUC, primary CF-HBE cells. As for the experimental part: Example 24. TECC24 AUC Fold Over DMSO @10 μM
The effects of a test agent on CFTR-mediated transepithelial chloride transport was measured using TECC24 recording analysis. Test agents were solubilized in DMSO. Solubilized test agents were mixed with incubation medium containing DMEM/F12, Ultroser G (2%; Crescent Chemical, catalog #67042), Hyclone Fetal Clone 11 (2%; GE Healthcare, catalog #SH30066.02), bovine brain extract (0.25%; Lonza, catalog #CC-4098), insulin (2.5 μg/mL), IL-13 (10 ng/mL), hydrocortisone (20 nM), transferrin ([…]), triiodothyronine (500 nM), ethanolamine (250 nM), epinephrine (1.5 μM), phosphoethanolamine (250 nM), and retinoic acid (10 nM). Primary human bronchial epithelial cells from a ΔF508 homozygous CF donor (CF-HBE cells; from University of North Carolina Cystic Fibrosis Tissue Procurement Center), grown on Transwell HTS 24-well cell culture inserts (Costar, catalog #3378), were exposed to test agents or controls dissolved in incubation medium. The CF-HBE cells were cultured at 36.5° C. for 48 hours before TECC24 recordings were performed in the presence or absence of test agent, a positive control or vehicle (DMSO).
Following incubation, the transwell cell culture inserts containing the test agent or control-treated CF-HBE cells were loaded onto a TECC24 apparatus (TECC v7 or MTECC v2; EP Design) to record the transepithelial voltage (VT) and resistance (TEER) using 4 AgCl electrodes per well configured in current-clamp mode. The apical and basolateral bath solutions both contained (in mM) 140 NaCl, 5 KCl, 2 CaCl2), 1 MgCl2, 10 Hepes, and 10 glucose (adjusted to pH 7.4 with NaOH). To inhibit basal Na+ absorption, the ENaC inhibitor benzamil (10 μM) was added to the bath. Then, the adenylate cyclase activator, forskolin (10 μM), was added to the bath to activate CFTR. The forskolin-stimulated Cl− transport was halted by addition of CFTR inhibitor-172 (20 μM) to the bath at the end of the experiment to confirm specificity. VT and TEER recordings were digitally acquired at routine intervals using TECC or MTECC software (EP Design). VT and TEER were transformed into equivalent transepithelial Cl− current (IEQ), and the Area Under the Curve (AUC) of the IEQ time course between forskolin and CFTR inhibitor-172 addition is generated using Excel (Microsoft). Efficacy is expressed as the ratio of the test agent AUC divided by vehicle AUC. EC50s based on AUC are generated using the non-linear regression log(agonist) vs. response function in Prism software (Graphpad) with HillSlope fixed=1.
If a test agent increased the AUC of the forskolin-stimulated IEQ relative to vehicle in CF-HBE cells, and this increase was inhibited by CFTR inhibitor-172, then the test agent was considered a CFTR corrector.

On to `CS(=O)(=O)c1c(Oc2ccc(F)c(-c3nc4c([nH]3)C(c3cccc(CCC(=O)O)c3F)NCCC4)c2)c(F)cc2[nH]ccc12` (stereo not drawn) [Example 22, 3-[2-fluoro-3-[2-[2-fluoro-5-[(6-fluoro-4-methylsulfonyl-1H-indol-5-yl)oxy]phenyl]-3,4,5,6,7,8-hexahydroimidazo[4,5-c]azepin-4-yl]phenyl]propanoic acid], for which, in the assay on NBD1, the “DSLS NBD1/3D Human Stability delta-T (° C.) @ 100 (μM)” value (“DSLS NBD1/3D Human Stability delta-T” for short) is given as “A (T ≥ 8° C.)”. For the same compound, on CFTR, the “TECC24 @ 10 uM over DMSO” value was “C (AUC @10 uM <= 4)”.

For the compound `O=C(O)CCc1cccc(C2c3nc(-c4cc(Oc5c(F)cc6[nH]ccc6c5F)ccc4F)[nH]c3CCN2CC(F)F)c1F` (stereo not drawn) [Example 12, 3-[3-[5-(2,2-difluoroethyl)-2-[5-[(4,6-difluoro-1H-indol-5-yl)oxy]-2-fluoro-phenyl]-1,4,6,7-tetrahydroimidazo[4,5-c]pyridin-4-yl]-2-fluoro-phenyl]propanoic acid], the “DSLS NBD1/3D Human Stability delta-T” value with NBD1 is reported as “A (T ≥ 8° C.)”. Besides, the “TECC24 @ 10 uM over DMSO” value on CFTR was “B (AUC @10 uM between 4-12)”.

As to `O=C(O)CCc1cccc([C@H]2NCCc3nc(-c4cc(Oc5c(F)cc6[nH]ccc6c5F)ccc4F)[nH]c32)c1F` (single isomer, unassigned) [Example 3], in the assay with NBD1, the “DSLS NBD1/3D Human Stability delta-T” value is “A (T ≥ 8° C.)”. Further, the “TECC24 @ 10 uM over DMSO” value on CFTR is listed as “A (AUC @10 uM >=12)”.

As to `CC(Cc1cccc(C2c3nc(-c4cc(Oc5c(F)cc6[nH]ccc6c5F)ccc4F)[nH]c3CCN2C)c1F)C(=O)O` (stereo not drawn) [Example 11, 3-[3-[2-[5-[(4,6-difluoro-1H-indol-5-yl)oxy]-2-fluoro-phenyl]-5-methyl-1,4,6,7-tetrahydroimidazo[4,5-c]pyridin-4-yl]-2-fluoro-phenyl]-2-methyl-propanoic acid], the “DSLS NBD1/3D Human Stability delta-T” value in the assay on NBD1 is on record as “A (T ≥ 8° C.)”. Besides, on CFTR, the “TECC24 @ 10 uM over DMSO” value was “C (AUC @10 uM <= 4)”.

Regarding `Cc1c(-c2cc(Oc3c(F)cc4[nH]ccc4c3S(C)(=O)=O)ccc2F)nc2n1CCNC2c1cccc(CC(C)C(=O)O)c1F` (stereo not drawn) [Example 8, 3-[2-fluoro-3-[2-[2-fluoro-5-[(6-fluoro-4-methylsulfonyl-1H-indol-5-yl)oxy]phenyl]-3-methyl-5,6,7,8-tetrahydroimidazo[1,2-a]pyrazin-8-yl]phenyl]-2-methyl-propanoic acid], in the assay with NBD1, the “DSLS NBD1/3D Human Stability delta-T” value is reported as “A (T ≥ 8° C.)”. The “TECC24 @ 10 uM over DMSO” value at CFTR was “C (AUC @10 uM <= 4)”.

Regarding `O=C(O)Cc1cccc(C2OCCc3cn(-c4cc(Oc5c(F)cc6[nH]ccc6c5F)ccc4F)nc32)c1F` (stereo not drawn) [Example 1, 2-(3-(2-(5-((4,6-difluoro-1H-indol-5-yl)oxy)-2-fluorophenyl)-2,4,5,7-tetrahydropyrano[3,4-c]pyrazol-7-yl)-2-fluorophenyl)acetic acid], the “DSLS NBD1/3D Human Stability delta-T” value in the assay with NBD1 is recorded as “B (4-8° C.)”. In addition, on CFTR, the “TECC24 @ 10 uM over DMSO” value is given as “C (AUC @10 uM <= 4)”.
